Row | melting point | Compound
1 | 150 to 155 °C | CN1C2CCC1CN(C(=O)c1cc3ccccc3o1)C2.O=C(O)/C=C/C(=O)O
2 | 108.7 to 109.4 °C | CN1C2CCC1CN(C(=O)c1ccc(-c3cccc(C(F)(F)F)c3)o1)C2.O=C(O)/C=C/C(=O)O
3 | 189 to 193 °C | CC(=O)Nc1cccc(-c2ccc(C(=O)N3CC4CCC(C3)N4C)o2)c1.O=C(O)/C=C/C(=O)O
4 | 197 to 207 °C | CN1C2CCC1CN(C(=O)c1ccc(-c3ccccc3)cc1)C2.O=C(O)/C=C/C(=O)O
